Experimental data from patent publication US12650432B2, “SCARA5 and DIO2 as biomarkers for miscarriage and implantation failure” (The University of Warwick, priority 2019, dated 2026).
Several values for one entry are separate records, joined by “and”; a condition that tells them apart may be missing. Identical values can stand only once. Marks after values point to notes of the source that are not given here.

Tests used:
[1] = system: haematopoietic stem and progenitor cells; details: up to 600 mg twice daily, after umbilical cord blood transplantation; cited from earlier work
[2] = Outcome of first pregnancy within 12 months after study completion; format: in vivo, human; details: sitagliptin group
Method: (§1) Participants were provided with compliance and symptom diaries at each visit. Diaries were assessed at every follow-up or biopsy visit. Acceptability and satisfaction of the study was assessed with a Likert scale-based questionnaire completed by participants after their final visit. Participants who conceived after completion of the study were requested to contact the trial team and outcome of the first pregnancy within one year of study completion was recorded.

[3] = system: SCARA5; assay: RT-qPCR of SCARA5 mRNA (decidual cell marker) in paired endometrial biopsies; format: in vivo, human; details: second vs baseline biopsy, oral 100 mg daily for 3 cycles, n=16
Method: (§2) RNA was extracted from RNAlater preserved tissue using the RNeasy Lipid Tissue Mini Kit (QIAGEN, Manchester, UK), with on-column DNase treatment, according to the manufacturer's instructions. RNA was assessed using a Nanodrop ND-1000 spectrophotometer and 1 μg RNA used for reverse transcription, performed using the Quantitect Reverse Transcription Kit (QIAGEN) according to manufacturer's instructions. Thermal cycling was performed on a QuantStudio 5 Real-Time PCR System (ThermoFisher, Paisley, UK), using PrecisionPlus 2× Mastermix (Primer Design, Southampton, UK), 300 nM each forward and reverse primers and 1 μl cDNA. L19 was used as a reference gene and data were analysed using the Pfaffl method (68).
(§3) Induction of PRL and IGFBP1 expression is widely used to monitor the decidual response in cultured EnSC (14).

[4] = system: PRL; assay: RT-qPCR of PRL transcript in paired endometrial biopsies; format: in vivo, human; details: second vs baseline biopsy, oral 100 mg daily for 3 cycles, n=16
Method: as §2, §3

[5] = system: DIO2; assay: RT-qPCR of DIO2 mRNA (senescent decidual cell marker) in paired endometrial biopsies; format: in vivo, human
Method: as §2, §3

[6] = Adverse events and side effects in trial participants; format: in vivo, human
Method: (§4) Following written informed consent, participants were given a digital home ovulation test kit (Clearblue, Geneva, Switzerland), an emergency contact card, and barrier contraception. Participants then attended the clinic 7-10 days after the luteinizing hormone (LH) surge (LH+7-10). Following a negative urine pregnancy test, a transvaginal pelvic ultrasound scan was performed. Endometrial thickness was defined as the maximal endometrium diameter measured in a mid-sagittal plane. Next, an endometrial biopsy was obtained using a Wallach Endocell® endometrial sampler. The sample, designated ‘baseline biopsy’, was immediately portioned with one part stored in RNALater Stabilization Solution (Sigma-Aldrich, Dorset, UK) one part snap frozen in liquid nitrogen, one part fixed in 10% formalin for immunohistochemistry, and the remainder placed in 10% DMEM/F12 for isolation of primary endometrial stromal cells (see below). Following randomisation (see below), trial medication was provided and all participants attended two follow-up clinics at 4 weeks±4 day intervals. At these follow-up visits a urine pregnancy test was carried out, symptom diaries were reviewed, adverse events reported, and willingness for continued participation confirmed. At the second follow-up visit, participants were provided with another home ovulation test kit. In the third cycle, participants attended the clinic on LH+7-10 for a repeat transvaginal ultrasound scan with measurement of endometrial thickness and endometrial biopsy. The sample, designated ‘second biopsy’, was processed identically to the baseline biopsy. Trial medication was stopped on the day of the second biopsy.
as §1

[7] = system: endometrial stromal cells (EnSC); assay: Colony-forming unit (CFU) assay on EnSC from paired endometrial biopsies, randomised placebo-controlled trial in RPL patients; format: in vivo, human
Excerpt: Participants were recruited from a tertiary recurrent miscarriage clinic at UHCW NHS Trust. […] Participants agreed to actively avoid pregnancy and use barrier contraception for the duration of the trial.
Participants were instructed to take the capsules once daily from the day of the baseline biopsy for 3 menstrual cycles until the second biopsy was taken. The control group were allocated identical placebo capsules also supplied by Sharp Clinical Services and instructed to take these exactly as the intervention group.
as §4
Primary EnSC were isolated according to our published protocol (65). Briefly, samples were washed in DMEM/F-12 medium (Invitrogen), finely minced and enzymatically digested with 0.5 mg/ml collagenase (Sigma-Aldrich) and 0.1 mg/ml deoxyribonuclease type I (Roche, Burgess Hill, UK) for 1 hour in 5% CO2 at 37° C. Stromal and epithelial fractions were separated and cryopreserved in 10% DMSO in dextran-coated charcoal-stripped fetal bovine serum (DCC; 2 ml per vial; Invitrogen), with the stromal fraction split into two or three vials depending on the biopsy size. After controlled cooling at −80° C. overnight, samples were transferred to liquid nitrogen for storage.
All CFU assays were conducted in batches, consisting of paired primary endometrial stromal cells isolated from baseline and second biopsies from 3 or 4 participants. CFU assays were established as described previously (66). Briefly, cryopreserved stromal cells were thawed for 3 minutes at 37° C. and then transferred immediately into pre-warmed growth medium (DMEM-F12 medium containing 10% DCC supplemented with 1% L-Glutamine and 1% antibiotic-antimycotic mix; Invitrogen). Cells were pelleted by centrifugation at 276×g for 5 minutes, supernatant was aspirated and cells were resuspended in 10 ml growth medium. Viable stromal cells were counted in trypan blue on a Neubauer Improved haemocytometer and seeded at clonal density (53 cells/cm2) onto fibronectin-coated 6-well plates (10 μg/ml in PBS; Sigma-Aldrich) in growth medium supplemented with […] basic fibroblast growth factor (Sigma Aldrich). Three wells, containing 500 cells each, were seeded per biopsy. Plates were cultured in 5% CO2 at 37° C., and left undisturbed for 3 days after which growth was monitored to ensure colonies arose from single cells.

[8] = system: IGFBP1; assay: RT-qPCR of IGFBP1 transcript in paired endometrial biopsies; format: in vivo, human; details: second vs baseline biopsy, oral 100 mg daily for 3 cycles, n=16
Method: as §2, §3

[9] = granulocyte-CSF-dependent mobilisation of BMDC followed by sitagliptin 100 mg for 28 days; cited from earlier work
[10] = sitagliptin group (n = 16), baseline biopsy before treatment

N[C@@H](CC(=O)N1CCn2c(nnc2C(F)(F)F)C1)Cc1cc(F)c(F)cc1F [sitagliptin]
Engraftment of haematopoietic stem and progenitor cells in bone marrow [1]: improve engraftment of haematopoietic stem and progenitor cells in bone marrow
Termination of pregnancy at 16 weeks for a fetal abnormality [2]: one
Live births ([2]; 12 pregnancies): 8
Spontaneous pregnancy losses before 12 weeks of gestation ([2]; 12 pregnancies): 3
SCARA5 mRNA level normalized to L19 [3]: not altered significantly
PRL transcript level normalized to L19 [4]: not significantly different
DIO2 mRNA level, median, second biopsy ([5]; after 3 cycles oral 100 mg daily, n=16, normalized to L19, P=0.0182 vs baseline): 3.86 a.u.
DIO2 mRNA level, median, baseline biopsy ([5]; sitagliptin group before treatment, n=16, normalized to L19): 5.09 a.u.
Adverse events, overall statement ([6]; pre-pregnancy sitagliptin treatment in RPL patients): no adverse events were reported
Chills, events ([6]; sitagliptin group n = 19): 1
Diarrhoea, events ([6]; sitagliptin group n = 19): 0
Dizziness, events ([6]; sitagliptin group n = 19): 2
Dizziness, participants ([6]; sitagliptin group n = 19): 1
Dry Nose, events ([6]; sitagliptin group n = 19): 0
Dry mouth, events ([6]; sitagliptin group n = 19): 1
Headache, events ([6]; sitagliptin group n = 19): 10
Headache, participants ([6]; sitagliptin group n = 19): 4
Low Mood, events ([6]; sitagliptin group n = 19): 1
Mouth ulcers, events ([6]; sitagliptin group n = 19): 0
Myalgia, events ([6]; sitagliptin group n = 19): 1
Nausea, events ([6]; sitagliptin group n = 19): 1
Night sweats, events ([6]; sitagliptin group n = 19): 1
Nose bleed, events ([6]; sitagliptin group n = 19): 0
Rash, events ([6]; sitagliptin group n = 19): 0
Sore Throat, events ([6]; sitagliptin group n = 19): 1
Stuffy Nose, events ([6]; sitagliptin group n = 19): 0
Thinning of hair, events ([6]; sitagliptin group n = 19): 0
Thirst, events ([6]; sitagliptin group n = 19): 1
UTI, events ([6]; sitagliptin group n = 19): 1
Second biopsy CFU count, Median (IQR, Range) ([7]; RPL patients, oral 100 mg once daily for 3 menstrual cycles): 14.0 (8.0-29.0, 3-145)^‡ per 1500 EnSC
Median increase in CFU count, second compared to baseline biopsy ([7]; after 3 cycles of sitagliptin): +7 per 1500 EnSC
Mean CFU count in second biopsy higher than placebo group, adjusted for baseline CFU count ([7]; after 3 cycles, oral 100 mg daily): 51%
Mean CFU count, second biopsy ([7]; all data, RPL patients, oral 100 mg once daily for 3 menstrual cycles): 27.67 per 1500 EnSC
Mean CFU count, second biopsy ([7]; all data, RPL patients, oral 100 mg once daily for 3 menstrual cycles, listed as Sitagliptin): 27.7 (35.8) per 1500 EnSC and 27.7 per 1500 EnSC
Average increase in CFU counts compared to baseline biopsy ([7]; sitagliptin given for 3 menstrual cycles): 68%
Baseline CFU count, Mean (SD) [7, 10]: 16.1 (19.6) per 1500 EnSC
Baseline CFU count, Median (IQR, Range) [7, 10]: 8.5 (4.5-17.8, 1-74) per 1500 EnSC
Mean CFU count, second biopsy ([7]; subgroup excluding women with outlying CFU counts (>20 colonies per 1500 cells), after 3 cycles): 14.42 per 1500 EnSC
IGFBP1 transcript level normalized to L19 [8]: not significantly different
Cardiac function [9]: failed to improve cardiac function
